In ChEMBL document CHEMBL5465560, “Selectivity Literature for EUbOPEN Chemogenomic Library” (2024):
One block for each compound: values may come before it.

Legend:
[1] = target: T1, Serine/threonine-protein kinase DCLK2 (Homo sapiens) (UniProt Q8N568); test: Selectivity interaction (Ambit KINOMEscan and KiNATiv profiling in Jurkat cells) EUB0000090b DCLK2; format: cell-based; settings: at 1 µM
T1 sequence (whole entry): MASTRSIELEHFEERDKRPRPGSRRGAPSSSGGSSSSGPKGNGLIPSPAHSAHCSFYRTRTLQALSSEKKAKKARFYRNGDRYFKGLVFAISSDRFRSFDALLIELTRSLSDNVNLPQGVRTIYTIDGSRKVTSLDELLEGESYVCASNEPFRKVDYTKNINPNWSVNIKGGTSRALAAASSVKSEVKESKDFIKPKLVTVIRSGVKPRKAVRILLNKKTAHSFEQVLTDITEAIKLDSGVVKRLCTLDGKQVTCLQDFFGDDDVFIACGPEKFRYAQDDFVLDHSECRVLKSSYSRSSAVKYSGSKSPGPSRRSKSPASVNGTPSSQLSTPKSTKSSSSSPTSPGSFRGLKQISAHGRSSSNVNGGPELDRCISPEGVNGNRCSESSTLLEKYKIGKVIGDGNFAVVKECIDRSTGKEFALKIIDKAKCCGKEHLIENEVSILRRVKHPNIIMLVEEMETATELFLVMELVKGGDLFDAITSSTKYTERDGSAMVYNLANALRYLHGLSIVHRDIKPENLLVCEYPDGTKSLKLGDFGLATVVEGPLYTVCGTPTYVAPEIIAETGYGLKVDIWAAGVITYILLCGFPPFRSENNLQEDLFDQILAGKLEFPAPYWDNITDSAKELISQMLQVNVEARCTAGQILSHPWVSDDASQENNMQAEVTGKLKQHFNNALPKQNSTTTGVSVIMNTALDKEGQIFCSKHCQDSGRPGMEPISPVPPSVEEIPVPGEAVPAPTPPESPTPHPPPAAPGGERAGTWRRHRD

[2] = target: Leukocyte tyrosine kinase receptor (Homo sapiens, UniProt P29376); test: Selectivity interaction (Ambit KINOMEscan and KiNATiv profiling in Jurkat cells) EUB0000090b LTK; format: cell-based; settings: at 1 µM
Chain of Leukocyte tyrosine kinase receptor (P29376 whole entry): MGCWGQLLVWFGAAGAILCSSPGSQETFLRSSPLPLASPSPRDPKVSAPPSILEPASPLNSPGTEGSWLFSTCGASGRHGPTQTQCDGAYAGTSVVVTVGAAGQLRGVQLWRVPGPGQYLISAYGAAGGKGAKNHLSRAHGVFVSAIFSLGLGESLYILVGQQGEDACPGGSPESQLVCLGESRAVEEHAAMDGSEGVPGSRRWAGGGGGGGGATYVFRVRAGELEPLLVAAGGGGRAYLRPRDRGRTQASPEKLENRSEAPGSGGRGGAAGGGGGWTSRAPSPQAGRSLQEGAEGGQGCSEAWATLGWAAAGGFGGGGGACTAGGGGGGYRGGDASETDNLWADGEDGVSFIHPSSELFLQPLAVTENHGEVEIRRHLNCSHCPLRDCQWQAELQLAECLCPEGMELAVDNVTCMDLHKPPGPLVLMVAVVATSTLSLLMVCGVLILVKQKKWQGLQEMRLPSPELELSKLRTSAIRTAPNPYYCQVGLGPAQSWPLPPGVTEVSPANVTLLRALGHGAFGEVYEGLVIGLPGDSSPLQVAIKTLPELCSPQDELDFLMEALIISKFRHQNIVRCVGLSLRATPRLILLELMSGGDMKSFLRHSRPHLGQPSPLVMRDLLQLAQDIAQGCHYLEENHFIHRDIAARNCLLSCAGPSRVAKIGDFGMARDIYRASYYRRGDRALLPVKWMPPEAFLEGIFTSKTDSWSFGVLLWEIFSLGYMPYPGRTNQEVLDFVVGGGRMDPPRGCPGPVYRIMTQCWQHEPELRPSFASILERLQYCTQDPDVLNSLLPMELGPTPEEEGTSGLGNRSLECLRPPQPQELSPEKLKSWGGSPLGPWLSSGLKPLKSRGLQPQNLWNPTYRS

[3] = target: Ribosomal protein S6 kinase alpha-5 (Homo sapiens) (UniProt O75582); test: Selectivity interaction (KinomeScan (DiscoverX)) EUB0001079a RPS6KA5; settings: at 1 µM
Chain of Ribosomal protein S6 kinase alpha-5 (Homo sapiens) (O75582 whole entry, looked up, canonical isoform): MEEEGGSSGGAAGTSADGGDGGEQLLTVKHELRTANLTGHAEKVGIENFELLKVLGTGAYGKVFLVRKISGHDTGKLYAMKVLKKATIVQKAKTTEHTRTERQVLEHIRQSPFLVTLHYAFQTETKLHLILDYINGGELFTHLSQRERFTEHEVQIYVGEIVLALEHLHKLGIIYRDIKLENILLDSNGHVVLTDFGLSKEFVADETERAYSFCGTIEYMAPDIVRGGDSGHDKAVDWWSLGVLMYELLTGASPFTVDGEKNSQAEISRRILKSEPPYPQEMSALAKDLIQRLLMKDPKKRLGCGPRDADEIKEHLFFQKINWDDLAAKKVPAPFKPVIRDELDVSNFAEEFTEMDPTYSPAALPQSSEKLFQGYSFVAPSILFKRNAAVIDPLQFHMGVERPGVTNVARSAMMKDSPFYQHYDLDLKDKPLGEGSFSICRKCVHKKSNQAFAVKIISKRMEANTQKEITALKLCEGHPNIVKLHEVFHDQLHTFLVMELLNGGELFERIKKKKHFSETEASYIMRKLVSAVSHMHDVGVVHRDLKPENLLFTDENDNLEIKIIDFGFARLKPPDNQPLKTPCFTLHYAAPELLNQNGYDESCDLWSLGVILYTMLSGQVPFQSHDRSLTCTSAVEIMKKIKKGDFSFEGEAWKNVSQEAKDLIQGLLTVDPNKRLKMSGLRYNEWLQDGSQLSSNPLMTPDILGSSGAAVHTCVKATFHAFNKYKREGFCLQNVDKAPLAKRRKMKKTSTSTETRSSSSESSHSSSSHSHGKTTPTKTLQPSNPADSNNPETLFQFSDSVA

[4] = test system: Phosphatidylinositol 4,5-bisphosphate 3-kinase catalytic subunit alpha isoform (Homo sapiens), P42336 [C420R]; settings: at 10 µM
Chain of Phosphatidylinositol 4,5-bisphosphate 3-kinase catalytic subunit alpha isoform (Homo sapiens), P42336 [C420R] (P42336 whole entry C420R, canonical isoform): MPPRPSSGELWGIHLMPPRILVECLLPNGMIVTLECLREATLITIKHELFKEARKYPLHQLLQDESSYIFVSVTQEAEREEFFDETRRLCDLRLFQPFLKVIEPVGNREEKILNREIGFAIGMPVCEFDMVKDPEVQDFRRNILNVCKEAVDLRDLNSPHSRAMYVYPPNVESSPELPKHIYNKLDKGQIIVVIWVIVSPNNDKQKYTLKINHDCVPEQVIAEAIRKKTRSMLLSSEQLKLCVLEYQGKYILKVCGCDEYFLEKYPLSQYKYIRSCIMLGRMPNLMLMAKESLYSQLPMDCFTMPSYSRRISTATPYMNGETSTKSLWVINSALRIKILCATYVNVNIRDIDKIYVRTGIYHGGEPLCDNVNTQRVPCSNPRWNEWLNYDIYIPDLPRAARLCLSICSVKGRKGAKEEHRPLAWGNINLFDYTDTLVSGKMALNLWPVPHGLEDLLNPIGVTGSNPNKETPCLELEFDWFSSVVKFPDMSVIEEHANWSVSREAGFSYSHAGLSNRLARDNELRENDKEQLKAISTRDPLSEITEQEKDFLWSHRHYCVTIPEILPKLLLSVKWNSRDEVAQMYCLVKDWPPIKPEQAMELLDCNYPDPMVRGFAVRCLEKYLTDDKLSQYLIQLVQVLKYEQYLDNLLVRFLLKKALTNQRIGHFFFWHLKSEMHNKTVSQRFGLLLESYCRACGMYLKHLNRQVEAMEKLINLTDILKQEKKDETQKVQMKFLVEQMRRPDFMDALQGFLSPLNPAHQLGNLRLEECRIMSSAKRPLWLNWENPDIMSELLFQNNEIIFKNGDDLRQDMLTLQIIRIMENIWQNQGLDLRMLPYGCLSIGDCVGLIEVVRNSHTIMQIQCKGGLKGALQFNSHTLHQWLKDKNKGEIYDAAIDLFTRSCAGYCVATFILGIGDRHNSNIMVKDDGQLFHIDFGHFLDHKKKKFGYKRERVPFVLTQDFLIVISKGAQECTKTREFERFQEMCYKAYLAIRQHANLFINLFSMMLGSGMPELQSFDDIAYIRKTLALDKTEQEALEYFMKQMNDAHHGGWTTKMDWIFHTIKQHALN

[5] = target: Proto-oncogene tyrosine-protein kinase Src (Homo sapiens, UniProt P12931); test: Selectivity interaction (ActivX KiNativ screen (ex vivo kinase selectivity in human PBMCs)) EUB0001619a SRC; format: cell-based; settings: PBMC, at 1 µM
[6] = target: T2, MAP/microtubule affinity-regulating kinase 4 (Homo sapiens) (UniProt Q96L34); test: Selectivity interaction (KinomeScan (DiscoverX)) EUB0000595a MARK4; settings: at 10 µM
T2 sequence (whole entry): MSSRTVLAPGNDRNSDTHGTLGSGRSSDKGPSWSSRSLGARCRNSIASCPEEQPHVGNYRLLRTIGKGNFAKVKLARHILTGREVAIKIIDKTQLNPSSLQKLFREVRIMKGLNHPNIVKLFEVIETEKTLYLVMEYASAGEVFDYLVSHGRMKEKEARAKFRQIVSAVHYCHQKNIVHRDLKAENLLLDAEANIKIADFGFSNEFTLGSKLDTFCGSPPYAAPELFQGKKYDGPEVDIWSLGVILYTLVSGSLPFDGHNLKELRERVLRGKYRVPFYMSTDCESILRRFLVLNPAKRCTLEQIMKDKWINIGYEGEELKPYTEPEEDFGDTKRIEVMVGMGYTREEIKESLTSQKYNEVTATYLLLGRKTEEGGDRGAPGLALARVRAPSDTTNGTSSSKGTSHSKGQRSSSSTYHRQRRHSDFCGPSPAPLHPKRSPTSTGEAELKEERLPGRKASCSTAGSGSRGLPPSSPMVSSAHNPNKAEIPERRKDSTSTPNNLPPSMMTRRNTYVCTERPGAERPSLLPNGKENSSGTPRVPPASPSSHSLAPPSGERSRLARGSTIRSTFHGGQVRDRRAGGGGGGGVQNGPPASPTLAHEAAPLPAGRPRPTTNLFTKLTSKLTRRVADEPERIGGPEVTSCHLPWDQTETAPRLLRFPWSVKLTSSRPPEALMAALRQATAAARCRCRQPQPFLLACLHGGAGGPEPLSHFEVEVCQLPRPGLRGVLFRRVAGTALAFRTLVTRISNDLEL

[7] = target: Tyrosine-protein kinase CSK (Homo sapiens) (UniProt P41240); test: Selectivity interaction (Kinase panel (KiNativ target engagement assay in Jurkat cells)) EUB0001635a CSK; format: cell-based; settings: at 1 µM
Chain of Tyrosine-protein kinase CSK (Homo sapiens) (P41240 2-450 limits assumed): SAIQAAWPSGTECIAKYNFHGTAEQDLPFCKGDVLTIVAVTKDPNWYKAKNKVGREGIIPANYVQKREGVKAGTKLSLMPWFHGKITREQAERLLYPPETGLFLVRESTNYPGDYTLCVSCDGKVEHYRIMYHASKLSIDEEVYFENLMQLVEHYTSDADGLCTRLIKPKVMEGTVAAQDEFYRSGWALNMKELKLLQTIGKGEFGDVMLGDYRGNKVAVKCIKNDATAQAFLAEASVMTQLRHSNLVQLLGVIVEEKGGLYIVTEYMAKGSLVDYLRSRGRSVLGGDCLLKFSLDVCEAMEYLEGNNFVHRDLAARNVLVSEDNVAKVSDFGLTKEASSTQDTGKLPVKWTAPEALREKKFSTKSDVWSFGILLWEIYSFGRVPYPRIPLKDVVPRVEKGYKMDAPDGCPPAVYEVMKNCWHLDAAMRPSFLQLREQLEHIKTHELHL

[8] = target: Serine/threonine-protein kinase 38-like (Homo sapiens) (UniProt Q9Y2H1); test: Selectivity interaction (ActivX KiNativ screen (kinase selectivity in THP-1 cell lysates)) EUB0000639a STK38L; format: subcellular; settings: lysate
Chain of Serine/threonine-protein kinase 38-like (Homo sapiens) (Q9Y2H1 2-464 limits assumed): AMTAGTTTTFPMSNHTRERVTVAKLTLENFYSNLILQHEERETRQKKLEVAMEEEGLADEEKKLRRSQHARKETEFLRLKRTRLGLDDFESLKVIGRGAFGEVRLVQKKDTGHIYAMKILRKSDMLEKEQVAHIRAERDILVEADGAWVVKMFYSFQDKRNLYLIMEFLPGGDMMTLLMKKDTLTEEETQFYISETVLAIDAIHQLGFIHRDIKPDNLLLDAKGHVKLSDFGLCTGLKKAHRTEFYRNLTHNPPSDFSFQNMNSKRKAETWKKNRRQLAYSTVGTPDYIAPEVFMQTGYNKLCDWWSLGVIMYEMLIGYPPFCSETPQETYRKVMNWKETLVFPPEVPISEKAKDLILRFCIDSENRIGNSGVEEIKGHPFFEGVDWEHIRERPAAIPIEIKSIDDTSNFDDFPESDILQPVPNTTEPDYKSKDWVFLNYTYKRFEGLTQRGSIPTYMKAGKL

[9] = target: Ribosomal protein S6 kinase beta-1 (Homo sapiens, UniProt P23443); test: Selectivity interaction (Kinase panel (Invitrogen)) EUB0000639a RPS6KB1; settings: at 200 nM
[10] = target: Mitogen-activated protein kinase 10 (Homo sapiens, UniProt P53779); test: Selectivity interaction (Kinase panel (Invitrogen)) EUB0000639a MAPK10; settings: at 200 nM
Chain of Mitogen-activated protein kinase 10 (P53779 whole entry): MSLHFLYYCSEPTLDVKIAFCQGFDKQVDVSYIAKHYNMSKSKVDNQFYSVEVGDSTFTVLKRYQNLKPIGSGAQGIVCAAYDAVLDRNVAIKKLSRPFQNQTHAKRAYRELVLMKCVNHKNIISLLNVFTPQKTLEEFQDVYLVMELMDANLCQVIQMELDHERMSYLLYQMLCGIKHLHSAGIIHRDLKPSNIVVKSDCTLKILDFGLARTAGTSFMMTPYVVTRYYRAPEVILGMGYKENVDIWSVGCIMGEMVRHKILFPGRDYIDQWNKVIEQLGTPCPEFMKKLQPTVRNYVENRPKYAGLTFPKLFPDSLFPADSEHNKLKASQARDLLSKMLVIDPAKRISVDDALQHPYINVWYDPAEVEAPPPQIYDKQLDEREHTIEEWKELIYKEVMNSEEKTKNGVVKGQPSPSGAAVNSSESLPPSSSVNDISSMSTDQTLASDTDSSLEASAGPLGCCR

[11] = target: T3, Serine/threonine-protein kinase Sgk1 (Homo sapiens) (UniProt O00141); test: Selectivity interaction (KinomeScan (DiscoverX)) EUB0000229b SGK1; settings: at 10 µM
T3 sequence (whole entry): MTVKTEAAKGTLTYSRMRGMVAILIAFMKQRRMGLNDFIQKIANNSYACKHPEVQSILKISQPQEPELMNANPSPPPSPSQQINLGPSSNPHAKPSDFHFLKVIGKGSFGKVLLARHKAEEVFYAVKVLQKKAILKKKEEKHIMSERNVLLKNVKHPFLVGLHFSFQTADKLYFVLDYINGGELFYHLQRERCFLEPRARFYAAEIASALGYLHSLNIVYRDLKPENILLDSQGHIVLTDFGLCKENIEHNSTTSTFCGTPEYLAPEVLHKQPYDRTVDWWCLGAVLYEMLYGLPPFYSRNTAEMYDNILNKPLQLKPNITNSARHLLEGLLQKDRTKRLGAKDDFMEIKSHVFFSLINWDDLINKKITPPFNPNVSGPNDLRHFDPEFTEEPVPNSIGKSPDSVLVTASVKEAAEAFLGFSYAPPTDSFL

[12] = target: Bromodomain-containing protein 2 (Homo sapiens) (UniProt P25440); test: Selectivity interaction (Human bromodomain panel (DSF assay)) EUB0000233b BRD2
Chain of Bromodomain-containing protein 2 (Homo sapiens) (P25440 whole entry, looked up): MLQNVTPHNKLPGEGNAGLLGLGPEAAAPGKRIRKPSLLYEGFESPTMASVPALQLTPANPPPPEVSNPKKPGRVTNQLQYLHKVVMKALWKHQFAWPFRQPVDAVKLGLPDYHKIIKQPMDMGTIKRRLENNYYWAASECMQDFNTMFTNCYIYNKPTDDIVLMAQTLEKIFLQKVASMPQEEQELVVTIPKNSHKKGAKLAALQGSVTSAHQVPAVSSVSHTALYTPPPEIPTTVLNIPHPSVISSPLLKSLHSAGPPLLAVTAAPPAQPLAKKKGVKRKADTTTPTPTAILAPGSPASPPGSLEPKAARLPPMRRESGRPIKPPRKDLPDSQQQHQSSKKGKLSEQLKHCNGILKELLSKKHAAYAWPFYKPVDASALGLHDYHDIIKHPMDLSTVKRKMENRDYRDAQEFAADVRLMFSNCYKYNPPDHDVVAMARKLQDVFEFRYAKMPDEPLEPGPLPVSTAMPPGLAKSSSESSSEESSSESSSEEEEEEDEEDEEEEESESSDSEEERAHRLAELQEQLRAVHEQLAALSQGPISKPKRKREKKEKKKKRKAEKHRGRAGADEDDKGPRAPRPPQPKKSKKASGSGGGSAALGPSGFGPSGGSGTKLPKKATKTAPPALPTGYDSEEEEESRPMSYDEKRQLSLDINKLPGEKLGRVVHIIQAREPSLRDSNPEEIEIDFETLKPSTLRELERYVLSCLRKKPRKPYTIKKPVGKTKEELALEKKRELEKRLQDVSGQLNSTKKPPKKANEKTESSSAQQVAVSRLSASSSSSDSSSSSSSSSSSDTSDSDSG

Compound: CN(C)C/C=C/C(=O)Nc1ccc(C(=O)N2CCCC(Nc3ncc(Cl)c(-c4c[nH]c5ccccc45)n3)C2)cc1 (configuration not stated)
% of control [1]: 78%
% of control [2]: 84%

Compound: Nc1cnc(N2CCc3cc(S(=O)(=O)Nc4c(F)cc(Cl)cc4F)cc(N4CCCC4=O)c32)nc1 [TP-020n]
% of control [3]: 95%

Compound: CNC(=O)Nc1ccc(-c2nc(N3CC4CCC(C3)O4)c3cnn(C4CCC5(CC4)OCCO5)c3n2)cc1
% of control [4]: 11%

Compound: N#Cc1cccc(-c2c[nH]c3ncnc(N4CCOCC4)c23)c1
% of inhibition [5]: -9%

Compound: COCC(=O)NC/C=C/c1ccc2ncnc(Nc3ccc(Oc4ccc(C)nc4)c(C)c3)c2c1 [CP-724714]
% of control [6]: 100%

Compound: C=CC(=O)Nc1ccc(C(=O)Nc2[nH]nc3c2CN(C(=O)N[C@H](CN(C)C)c2ccccc2)C3(C)C)cc1
% of engagement ([7]; Selectivity number of off-targets 0.0, Selectivity number of targets 233.0, Source Knowledge https://www.sciencedirect.com/science/article/pii/S2451945619300674?via%3Dihub): -7.9%
% of engagement [7]: -8.1%

% of inhibition ([8]; at 0.01 µM): 5.2%
% of inhibition ([8]; at 0.04 µM): -2%
% of inhibition ([8]; at 0.2 µM): 12%
% of inhibition ([8]; at 1 µM): 51.5%
% of inhibition ([8]; at 5 µM): 82.9%
% of inhibition [9]: 17.4%
% of inhibition [10]: 4.92%
Compound: CC[C@@H]1[C@H](F)C(=O)N[C@@H]1COc1nccc2cc(C(N)=O)c(OC)cc12 [ZIMLOVISERTIB]

Compound: COc1cc(N(C)c2ccnc3ccc(C(F)(F)F)cc23)cc(OC)c1OC
% binding [11]: 97%

dTM [12]: < 2 K
Compound: CN(C)CCCOc1ccc(-c2cc(NCCCn3cccn3)nc(S(C)(=O)=O)n2)cc1
